Test results from patent US20100267561A1, “HERBICIDAL PYRIDAZINONE DERIVATIVES” (priority 2007, published 2010).

Experiments:
Type in all cases: in vivo
[1] = tested on: water-seeded rice seedlings (Oryza sativa cv. ‘Japonica—M202’); experiment: Test D flooded paddy plant response; conditions: Flood, scale 0 to 100 (0 no effect, 100 complete control), 21 days
Description: (§1) Three plastic pots (ca. 16-cm diameter) for each application rate were partially filled with sterilized Tama silt loam soil comprising a 35:50:15 ratio of sand, silt and clay and 2.6% organic matter. Separate plantings for each of the three pots were as follows. Seeds from the U.S. of ducksalad (Heteranthera limosa), umbrella sedge (Cyperus difformis) and purple redstem (Ammannia coccinea), were planted into one 16-cm pot for each rate. Seeds from the U.S. of rice flatsedge (Cyperus iria), bearded (Brdd.) sprangletop (Leptochloa fascicularis), one stand of 9 or 10 water-seeded rice seedlings (Oryza sativa cv. ‘Japonica—M202’), and one stand of 6 transplanted rice seedlings (Oryza sativa cv. ‘Japonica—M202’) were planted into one 16-cm pot for each rate. Seeds from the U.S. of barnyardgrass (Echinochloa crus-galli), late watergrass (Echinochloa oryzicola), early watergrass (Echinochloa oryzoides) and junglerice (Echinochloa colona) were planted into one 16-cm pot for each rate. Plantings were sequential so that crop and weed species were at the 2.0 to 2.5-leaf stage at time of treatment.
(§2) Potted plants were grown in a greenhouse with day/night temperature settings of 30/27° C., and supplemental balanced lighting was provided to maintain a 16-hour photoperiod. Test pots were maintained in the greenhouse until test completion.
(§3) At time of treatment, test pots were flooded to 3 cm above the soil surface, treated by application of test compounds directly to the paddy water, and then maintained at that water depth for the duration of the test. Effects of treatments on rice and weeds were visually evaluated by comparison to untreated controls after 21 days. Plant response ratings, summarized in Table D, are based on a scale of 0 to 100 where 0 is no effect and 100 is complete control. A dash (-) response means no test result.

[2] = tested on: purple redstem (Ammannia coccinea); experiment: Test D flooded paddy plant response; conditions: Flood, scale 0 to 100 (0 no effect, 100 complete control), 21 days
Description: as §1, §2, §3

[3] = tested on: bearded (Brdd.) sprangletop (Leptochloa fascicularis); experiment: Test D flooded paddy plant response; conditions: Flood, scale 0 to 100 (0 no effect, 100 complete control), 21 days
Description: as §1, §2, §3

[4] = tested on: barnyardgrass (Echinochloa crus-galli); experiment: Test D flooded paddy plant response; conditions: Flood, scale 0 to 100 (0 no effect, 100 complete control), 21 days
Description: as §1, §2, §3

[5] = tested on: early watergrass (Echinochloa oryzoides); experiment: Test D flooded paddy plant response; conditions: Flood, scale 0 to 100 (0 no effect, 100 complete control), 21 days
Description: as §1, §2, §3

[6] = tested on: ducksalad (Heteranthera limosa); experiment: Test D flooded paddy plant response; conditions: Flood, scale 0 to 100 (0 no effect, 100 complete control), 21 days
Description: as §1, §2, §3

[7] = tested on: transplanted rice seedlings (Oryza sativa cv. ‘Japonica—M202’); experiment: Test D flooded paddy plant response; conditions: Flood, scale 0 to 100 (0 no effect, 100 complete control), 21 days
Description: as §1, §2, §3

[8] = tested on: junglerice (Echinochloa colona); experiment: Test D flooded paddy plant response; conditions: Flood, scale 0 to 100 (0 no effect, 100 complete control), 21 days
Description: as §1, §2, §3

[9] = tested on: late watergrass (Echinochloa oryzicola); experiment: Test D flooded paddy plant response; conditions: Flood, scale 0 to 100 (0 no effect, 100 complete control), 21 days
Description: as §1, §2, §3

[10] = tested on: rice flatsedge (Cyperus iria); experiment: Test D flooded paddy plant response; conditions: Flood, scale 0 to 100 (0 no effect, 100 complete control), 21 days
Description: as §1, §2, §3

[11] = tested on: umbrella sedge (Cyperus difformis); experiment: Test D flooded paddy plant response; conditions: Flood, scale 0 to 100 (0 no effect, 100 complete control), 21 days
Description: as §1, §2, §3

[12] = tested on: wild oat (AVEFA, Avena fatua); experiment: Test F mixtures with safener cloquintocet-mexyl, pre-/postemergence plant response; conditions: applied alone
[13] = tested on: winter wheat (TRZAW, Triticum aestivum); experiment: as above; conditions: applied alone

CCc1cc(-c2ccc(Cl)cc2)nn1-c1c(O)cnn(C)c1=O [Compound 21]
Plant response rating, Rice, Water Seeded ([1]; 16 g ai/ha): 0
Plant response rating, Rice, Water Seeded ([1]; 32 g ai/ha): 20
Plant response rating, Rice, Water Seeded ([1]; 64 g ai/ha): 35
Plant response rating, Rice, Water Seeded ([1]; 125 g ai/ha): 65
Plant response rating, Rice, Water Seeded ([1]; 250 g ai/ha): 75
Plant response rating, Redstem, Purple ([2]; 16 g ai/ha): 0
Plant response rating, Redstem, Purple ([2]; 32 g ai/ha): 0
Plant response rating, Redstem, Purple ([2]; 64 g ai/ha): 0
Plant response rating, Redstem, Purple ([2]; 125 g ai/ha): 0
Plant response rating, Redstem, Purple ([2]; 250 g ai/ha): 0
Plant response rating, Sprangletop, Brdd. ([3]; 16 g ai/ha): 30
Plant response rating, Sprangletop, Brdd. ([3]; 32 g ai/ha): 30
Plant response rating, Sprangletop, Brdd. ([3]; 64 g ai/ha): 80
Plant response rating, Sprangletop, Brdd. ([3]; 125 g ai/ha): 100
Plant response rating, Sprangletop, Brdd. ([3]; 250 g ai/ha): 100
Plant response rating, Barnyardgrass ([4]; 16 g ai/ha): 0
Plant response rating, Barnyardgrass ([4]; 32 g ai/ha): 60
Plant response rating, Barnyardgrass ([4]; 64 g ai/ha): 100
Plant response rating, Barnyardgrass ([4]; 125 g ai/ha): 100
Plant response rating, Barnyardgrass ([4]; 250 g ai/ha): 100
Plant response rating, Watergrass, Early ([5]; 16 g ai/ha): 0
Plant response rating, Watergrass, Early ([5]; 32 g ai/ha): 40
Plant response rating, Watergrass, Early ([5]; 64 g ai/ha): 65
Plant response rating, Watergrass, Early ([5]; 125 g ai/ha): 100
Plant response rating, Watergrass, Early ([5]; 250 g ai/ha): 100
Plant response rating, Ducksalad ([6]; 16 g ai/ha): 0
Plant response rating, Ducksalad ([6]; 32 g ai/ha): 0
Plant response rating, Ducksalad ([6]; 64 g ai/ha): 0
Plant response rating, Ducksalad ([6]; 125 g ai/ha): 0
Plant response rating, Ducksalad ([6]; 250 g ai/ha): 0
Plant response rating, Rice, Transplanted ([7]; 16 g ai/ha): 0
Plant response rating, Rice, Transplanted ([7]; 32 g ai/ha): 0
Plant response rating, Rice, Transplanted ([7]; 64 g ai/ha): 0
Plant response rating, Rice, Transplanted ([7]; 125 g ai/ha): 50
Plant response rating, Rice, Transplanted ([7]; 250 g ai/ha): 65
Plant response rating, Junglerice ([8]; 16 g ai/ha): 0
Plant response rating, Junglerice ([8]; 32 g ai/ha): 70
Plant response rating, Junglerice ([8]; 64 g ai/ha): 100
Plant response rating, Junglerice ([8]; 125 g ai/ha): 100
Plant response rating, Junglerice ([8]; 250 g ai/ha): 100
Plant response rating, Watergrass, Late ([9]; 16 g ai/ha): 0
Plant response rating, Watergrass, Late ([9]; 32 g ai/ha): 30
Plant response rating, Watergrass, Late ([9]; 64 g ai/ha): 60
Plant response rating, Watergrass, Late ([9]; 125 g ai/ha): 100
Plant response rating, Watergrass, Late ([9]; 250 g ai/ha): 100
Plant response rating, Flatsedge, Rice ([10]; 16 g ai/ha): 0
Plant response rating, Flatsedge, Rice ([10]; 32 g ai/ha): 0
Plant response rating, Flatsedge, Rice ([10]; 64 g ai/ha): 70
Plant response rating, Flatsedge, Rice ([10]; 125 g ai/ha): 70
Plant response rating, Flatsedge, Rice ([10]; 250 g ai/ha): 70
Plant response rating, Sedge, Umbrella ([11]; 16 g ai/ha): 0
Plant response rating, Sedge, Umbrella ([11]; 32 g ai/ha): 0
Plant response rating, Sedge, Umbrella ([11]; 64 g ai/ha): 0
Plant response rating, Sedge, Umbrella ([11]; 125 g ai/ha): 0
Plant response rating, Sedge, Umbrella ([11]; 250 g ai/ha): 0

CCc1cc(-c2ccc(C(F)(F)F)cc2)nn1-c1c(OC(=O)OC(C)C)cnn(C)c1=O [Compound 12]
AVEFA Obsd. (observed effect) plant response rating, scale 0 to 100 ([12]; postemergence, 4 g a.i./ha): 13
AVEFA Obsd. (observed effect) plant response rating, scale 0 to 100 ([12]; postemergence, 8 g a.i./ha): 98
AVEFA Obsd. (observed effect) plant response rating, scale 0 to 100 ([12]; postemergence, 16 g a.i./ha): 100
AVEFA Obsd. (observed effect) plant response rating, scale 0 to 100 ([12]; preemergence, 4 g a.i./ha): 7
AVEFA Obsd. (observed effect) plant response rating, scale 0 to 100 ([12]; preemergence, 8 g a.i./ha): 92
AVEFA Obsd. (observed effect) plant response rating, scale 0 to 100 ([12]; preemergence, 16 g a.i./ha): 96
TRZAW Obsd. (observed effect) plant response rating, scale 0 to 100 ([13]; postemergence, 4 g a.i./ha): 0
TRZAW Obsd. (observed effect) plant response rating, scale 0 to 100 ([13]; postemergence, 8 g a.i./ha): 18
TRZAW Obsd. (observed effect) plant response rating, scale 0 to 100 ([13]; postemergence, 16 g a.i./ha): 77
TRZAW Obsd. (observed effect) plant response rating, scale 0 to 100 ([13]; preemergence, 4 g a.i./ha): 0
TRZAW Obsd. (observed effect) plant response rating, scale 0 to 100 ([13]; preemergence, 8 g a.i./ha): 75
TRZAW Obsd. (observed effect) plant response rating, scale 0 to 100 ([13]; preemergence, 16 g a.i./ha): 97

CCCc1cc(-c2ccc(Cl)cc2)nn1-c1c(O)cnn(C)c1=O [Compound 43]
Plant response rating, Rice, Water Seeded ([1]; 16 g ai/ha): 0
Plant response rating, Rice, Water Seeded ([1]; 32 g ai/ha): 0
Plant response rating, Rice, Water Seeded ([1]; 64 g ai/ha): 0
Plant response rating, Rice, Water Seeded ([1]; 125 g ai/ha): 30
Plant response rating, Rice, Water Seeded ([1]; 250 g ai/ha): 35
Plant response rating, Redstem, Purple ([2]; 16 g ai/ha): 0
Plant response rating, Redstem, Purple ([2]; 32 g ai/ha): 0
Plant response rating, Redstem, Purple ([2]; 64 g ai/ha): 0
Plant response rating, Redstem, Purple ([2]; 125 g ai/ha): 0
Plant response rating, Redstem, Purple ([2]; 250 g ai/ha): 0
Plant response rating, Sprangletop, Brdd. ([3]; 16 g ai/ha): 0
Plant response rating, Sprangletop, Brdd. ([3]; 32 g ai/ha): 0
Plant response rating, Sprangletop, Brdd. ([3]; 64 g ai/ha): 0
Plant response rating, Sprangletop, Brdd. ([3]; 125 g ai/ha): 0
Plant response rating, Sprangletop, Brdd. ([3]; 250 g ai/ha): 20
Plant response rating, Barnyardgrass ([4]; 16 g ai/ha): 0
Plant response rating, Barnyardgrass ([4]; 32 g ai/ha): 20
Plant response rating, Barnyardgrass ([4]; 64 g ai/ha): 60
Plant response rating, Barnyardgrass ([4]; 125 g ai/ha): 100
Plant response rating, Barnyardgrass ([4]; 250 g ai/ha): 100
Plant response rating, Watergrass, Early ([5]; 16 g ai/ha): 0
Plant response rating, Watergrass, Early ([5]; 32 g ai/ha): 0
Plant response rating, Watergrass, Early ([5]; 64 g ai/ha): 60
Plant response rating, Watergrass, Early ([5]; 125 g ai/ha): 70
Plant response rating, Watergrass, Early ([5]; 250 g ai/ha): 100
Plant response rating, Ducksalad ([6]; 16 g ai/ha): 0
Plant response rating, Ducksalad ([6]; 32 g ai/ha): 0
Plant response rating, Ducksalad ([6]; 64 g ai/ha): 0
Plant response rating, Ducksalad ([6]; 125 g ai/ha): 0
Plant response rating, Ducksalad ([6]; 250 g ai/ha): 0
Plant response rating, Rice, Transplanted ([7]; 16 g ai/ha): 0
Plant response rating, Rice, Transplanted ([7]; 32 g ai/ha): 0
Plant response rating, Rice, Transplanted ([7]; 64 g ai/ha): 0
Plant response rating, Rice, Transplanted ([7]; 125 g ai/ha): 10
Plant response rating, Rice, Transplanted ([7]; 250 g ai/ha): 35
Plant response rating, Junglerice ([8]; 16 g ai/ha): 0
Plant response rating, Junglerice ([8]; 32 g ai/ha): 0
Plant response rating, Junglerice ([8]; 64 g ai/ha): 60
Plant response rating, Junglerice ([8]; 125 g ai/ha): 100
Plant response rating, Junglerice ([8]; 250 g ai/ha): 100
Plant response rating, Watergrass, Late ([9]; 16 g ai/ha): 0
Plant response rating, Watergrass, Late ([9]; 32 g ai/ha): 0
Plant response rating, Watergrass, Late ([9]; 64 g ai/ha): 30
Plant response rating, Watergrass, Late ([9]; 125 g ai/ha): 65
Plant response rating, Watergrass, Late ([9]; 250 g ai/ha): 100
Plant response rating, Flatsedge, Rice ([10]; 16 g ai/ha): 0
Plant response rating, Flatsedge, Rice ([10]; 32 g ai/ha): 0
Plant response rating, Flatsedge, Rice ([10]; 64 g ai/ha): 0
Plant response rating, Flatsedge, Rice ([10]; 125 g ai/ha): 0
Plant response rating, Flatsedge, Rice ([10]; 250 g ai/ha): 0
Plant response rating, Sedge, Umbrella ([11]; 16 g ai/ha): 0
Plant response rating, Sedge, Umbrella ([11]; 32 g ai/ha): 0
Plant response rating, Sedge, Umbrella ([11]; 64 g ai/ha): 0
Plant response rating, Sedge, Umbrella ([11]; 125 g ai/ha): 0
Plant response rating, Sedge, Umbrella ([11]; 250 g ai/ha): 0
